Reference: US12516085B2, “Methods and compositions for treating Myc-driven cancers” (Sanford Burnham Prebys Medical Discovery Institute, priority 2019, dated 2026)
Entries after “also recorded” stand apart in the source; their conditions may differ.

What was measured:
Assay type in all cases: cell-based
[1] = system: Hi- and Lo-Myc cell lines; experiment: Proliferation of Hi- and Lo-Myc cell lines transfected with lentiviral vectors expressing GFP, HNB or HNB(ATG>TGA); conditions: 8 Hi- and Lo-Myc cell lines; lentiviral overexpression
Excerpt: To determine the function of the HNB, the Hi- and Lo-Myc cell lines were transfected with lentiviral vectors expressing GFP, HNB or HNB where the start site has been mutated (HNB(ATG>TGA)).

MSTO-211H-HNB^i = experiment: Proliferation after Doxycycline-induced HNB expression, MSTO-211H-HNB^i; conditions: following Doxycycline treatment
Method: (§1) In addition, an inducible lentiviral system was developed, in which the transgene could be expressed under a Doxycycline inducible promoter. The system was verified by inserting eGFP as the transgene and by flow analysis of GFP^+ cells in absence and presence of doxycycline as shown in FIG. 8. […] The same system was used to clone HNB under the regulation of a Doxycycline inducible promoter and generate the cell lines MSTO-211H-HNB^i and U2OS-HNB^i. […] Western blot analysis was performed of Myc protein in Hi-Myc cell line MSTO-211H-HNB^i.

U2OS-HNB^i = experiment: Proliferation after Doxycycline-induced HNB expression, U2OS-HNB^i; conditions: following Doxycycline treatment
Method: as §1

Myc protein = experiment: Western blot of Myc protein after Doxycycline-induced HNB expression in MSTO-211H-HNB^i; conditions: Hi-Myc cell line MSTO-211H-HNB^i; following Doxycycline induction
Method: as §1

## HNB: 14 amino acid micro-peptide MKTQLGAVKGFLHV (SEQ ID NO: 1) coded by shORF at Exon 3-4 junction of PVT1ts; expressed from lentiviral vectors
[1]
  proliferation: failed to proliferate
MSTO-211H-HNB^i
  proliferation rate: significant reduction in their proliferation rates
U2OS-HNB^i
  proliferation rate: significant reduction in their proliferation rates
Myc protein
  Myc protein expression (western blot, relative to β-Actin): decreased; also recorded: reduced MYC protein
